Measured values: patent US8076159B2, “Ligand-regulable transactivation systems, methods of use thereof, methods of detecting estrogen receptor ligands, and methods of differentiating estrogen receptor ligand agonists and antagonists” (The Board of Trustees of the Leland Stanford Junior …, priority 2006, dated 2011)

Molecular target: T1, GAL4-ER (LBD)-VP16 fusion protein (Homo sapiens, UniProt P03372, G400V)
T1 construct: was used to replace the ER of 281-595; expressed in transfected cells; host or cells: 293T cells (A1, A2, A3, A5)
T1 sequence (P03372 281-595 G400V): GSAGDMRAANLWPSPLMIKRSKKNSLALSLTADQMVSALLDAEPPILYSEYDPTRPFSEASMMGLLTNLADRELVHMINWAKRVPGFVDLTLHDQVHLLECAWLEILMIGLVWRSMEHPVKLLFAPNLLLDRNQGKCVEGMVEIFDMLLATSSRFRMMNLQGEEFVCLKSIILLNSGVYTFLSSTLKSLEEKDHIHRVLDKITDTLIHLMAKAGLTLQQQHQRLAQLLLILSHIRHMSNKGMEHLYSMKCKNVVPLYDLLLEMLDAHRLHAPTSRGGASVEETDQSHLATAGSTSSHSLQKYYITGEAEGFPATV
Assay: ER-ligand induced transactivation system (GAL4-ER(LBD)-VP16 activator + GAL4-E4-firefly luciferase reporter) in transiently co-transfected 293T cells
Format: cell-based
Text: Cell Transfection and Luciferase Assay. […] Volumes of Lipofectamine were as recommended by the manufacturer.

Row | Compound | fold luciferase signal in comparison to carrier control (1 μM ligand) | transactivation signal relative to carrier control (in words) (1 μM)
1 | C[C@]12CC[C@@H]3c4ccc(O)cc4C[C@@H](CCCCCCCCC[S+]([O-])CCCC(F)(F)C(F)(F)F)[C@H]3[C@@H]1CC[C@@H]2O (some centres unmarked) [ICI] | 300±80 fold | 
2 | N.N.[Cl][Pt][Cl] [non-ligand anticancer drug, cisplatinum] |  | not significantly different from the cells exposed to carrier control
